The conditions of data set [1]: published peptide, cited from earlier work. From the text:
Table 2 A selection of published peptide sequences derived from LL-37 with immune-modulating actions, and examples of their biological effects. | column: Biological activity

For the next data set, the system named is staphopain B (SspB). Put plainly: S. aureus staphopain B (0.6 µg) (Sigma-Aldrich) in a total volume of 30 µl. To be noted: 37 °C, up to 3 h.
Data set [2] deals with T1, S. aureus staphopain A (ScpA) (Staphylococcus aureus, UniProt P81297).
T1 construct: purchased Preparatis (Krakow, Poland)
T1 sequence (P81297 215-388): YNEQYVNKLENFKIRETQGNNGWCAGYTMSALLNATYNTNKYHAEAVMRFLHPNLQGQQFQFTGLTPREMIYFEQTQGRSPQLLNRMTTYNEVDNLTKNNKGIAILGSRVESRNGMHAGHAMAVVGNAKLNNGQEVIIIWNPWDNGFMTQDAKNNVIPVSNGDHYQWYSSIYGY
Format: in vitro ADME. To be noted: gel-electrophoresis (10-20% Tricine gel); MS detected cleavage of minor fragments. The protocol: (§1) Proteolytic degradation of LL-37 and SDS-PAGE analysis (See Supplementary Methods S1).
Matrix-assisted laser desorption ionization mass spectrometry (MALDI-MS) was used for the identification of […] generated peptides of LL-37. A MALDI matrix solution consisting of 5 mg/ml hydroxycinnamic acid in 50% acetonitrile, 0.1% (v/v) phosphoric acid[67] was mixed with the staphopain-generated peptides. The matrix solution contained two peptide standards [des-arg-bradykinin (m/z 904.468) and ACTH 18–39 (m/z 2465.199)] that were used for internal mass calibration in every analyte/matrix position. MALDI-MS and MS/MS analyses of the samples were performed on a 4700 Proteomics Analyzer MALDI-TOF/TOF™ mass spectrometer (Applied Biosystems, Framingham, MA). Database searching was carried out using Mascot (Matrix Science) with Swissprot as the database and with a peptide mass tolerance of 50 ppm and a fragment mass tolerance of 0.2 Da. […]
labeled LL-37) and green (S. aureus cells) seen separately, and yellow representing co-existence of bacterial cells and the TAMRA-labeled LL-37 peptide. Binding of TAMRA labeled LL-37 to the S. aureus cells were present throughout the biofilm. […]
Supplementary Fig. S5. […] LL-37 was incubated with and without S. aureus ScpA and analyzed using SDS-PAGE (Novex®10-20% Tricine Gel) (a), and by mass spectrometry (b). […]

In data set [3] the target is T2, S. aureus staphopain B (SspB) (Staphylococcus aureus, UniProt P0C1S6).
T2 construct: purchased Sigma-Aldrich
T2 sequence (P0C1S6 220-393): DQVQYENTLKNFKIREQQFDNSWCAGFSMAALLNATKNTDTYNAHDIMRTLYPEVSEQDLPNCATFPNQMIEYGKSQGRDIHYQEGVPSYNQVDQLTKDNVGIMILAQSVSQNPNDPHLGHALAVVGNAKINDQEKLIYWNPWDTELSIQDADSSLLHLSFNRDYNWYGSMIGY
The data set is described as follows: Proteolytic degradation of LL-37 by staphopain B, SDS-PAGE and MS. It is filed as in vitro ADME. The note with it: LL-37 3 μg with staphopain B 0.6 μg in 30 μl, 3 h, 37 °C; SDS-PAGE (10-20% Tricine gel), MALDI-MS. As for the experimental part: as §1
Matrix-assisted laser desorption ionization mass spectrometry (MALDI-MS) was used for the identification of trypsin generated peptides of LL-37. A MALDI matrix solution consisting of 5 mg/ml hydroxycinnamic acid in 50% acetonitrile, 0.1% (v/v) phosphoric acid[67] was mixed with the staphopain-generated peptides. The matrix solution contained two peptide standards [des-arg-bradykinin (m/z 904.468) and ACTH 18–39 (m/z 2465.199)] that were used for internal mass calibration in every analyte/matrix position. […]
LL-37 (3 µg), was incubated with S. aureus staphopain B (0.6 µg) (Sigma-Aldrich, St. Louis, MO, USA) in a total volume of 30 µl for 3 h at 37 ° C. […] The materials were subsequently analysed on Novex®10-20% Tricine Gel (Life technologies, Carlsbad, CA, USA) under reducing conditions. […]
The NF-κB/AP-1 reporter cell line THP1-XBlue™ -CD14, derived from the human monocytic THP-1 cell line, (InvivoGen, San Diego, CA, USA) was cultured according to the manufacturer’s protocol. […] NF-κB/AP-1 activation was assessed by using QUANTI-Blue™ assay according to the instructions supplied by the manufacturer. Secreted embryonic alkaline phosphatase (SEAP) was produced by the cell line upon stimulation and assessed by a SEAP detection reagent in cell supernatants. Absorbance at 600 nm was then detected. […]

Data set [4] relates to planktonic S. aureus (isolates from skin of patients with AD and ATCC 29213). It is filed as cell-based, Staphylococcus aureus. To be noted: summary over the tested S. aureus strains. The protocol:
Measurement of the bacterial susceptibility was determined by using a modified version of the CBD method (MBEC^TM Biofilm Inoculator, Innovotech, Edmonton, Canada)[59] following the manufacturers protocol. Briefly, to establish biofilms in vitro using the CBD, 150 μl bacterial solution of 10^5 CFU/ml in 1.5% tryptic soy broth (TSB) was supplemented with 0.3% glucose and aliquoted into each well of the MBEC plate and thereafter incubated for 24 h in a rotary incubator at 37 °C and 180 rpm. This allowed the biofilm to form on the pegs. The pegs with established biofilms were then washed once in sterile PBS (200 μl/well). […]
The MIC values measured using the CBD are equivalent to MIC values obtained using the National Committee for Clinical Laboratory Standards (NCCLS) procedure. The MIC value, representing the concentration required to inhibit growth of planktonic bacteria, was determined from bacteria that were shed from the pegs when the lid of the CBD was placed in different concentrations of LL-37. […] MBECs were determined by analyzing the bacterial viability in the biofilm after 24 h of incubation at 37 °C either by reading the turbidity at 600 nm in a 96-well plate reader (Victor[3] 1420 multilabel counter, Perkin-Elmer) or by obtaining bacterial plate counts. The recorded MIC and MBEC values represent a typical result of three independent experiments.

“Also recorded” adds a separate entry of the source. Like-named read-outs stand apart in the source and are kept apart here.

With “GKEFKRI VQRIKDFLRN LVPR (GKEFKRIVQRIKDFLRNLVPR)”, the Biological activity result in data set [1] (ref [24]) is on record as “AM, IM^1c,2”.

On to LLGDFFRKSKEKIGKEFKRIV, for which the Biological activity entry in data set [1] (ref [24]) is reported as “AM, IM^2”. Regarding RKSK EKIGKEFKRI VQRIKDFLRN L [RK-25], the Biological activity entry in data set [1] (ref [27]) is given as “IM^1b,3”. LLGDFFRKSKEKIGKEFKRIVQRIK [LL-25]: the Biological activity entry in data set [1] (ref [27]) is listed as “IM^1b”. On to “KSK EKIGKEFKRI VQRIKDFLRN LVPRTES [KS-30]”, for which, in data set [1] (ref [23], [25], [26]), the Biological activity result was “AM, IM^3,4”. As to “LLGDFFRKSKEKIGKEFKRIVQRIKDFLRNL [LL-31]”, the Biological activity entry in data set [1] (ref [27]) is “IM^1b,3”.

IGKEFKRI VQRIKDFLRN L [IG-19]: the Biological activity result in data set [1] (ref [27], [28]) is “IM^1b,2,5”. Consider “RKSK EKIGKEFKRI VQRIKDFLRN LVPRTES [F110, published fragment (F) derived from LL-37]”, for which the Biological activity result in data set [1] (ref [29]) is reported as “AM, IM^1c,2”. For the compound IGKEFKRI VQRIKDFLRN LVPRTES [IG-25], in data set [1] (ref [27]), the Biological activity result was “IM^1b,3”.

On to “GDFFRKSK EKIGKEFKRI VQRIKDFLRN LVPRTES [F106, published fragment (F) derived from LL-37]”, for which the Biological activity entry in data set [1] (ref [29]) is reported as “AM, IM^2”. Turning to LLGDFFRKSKEKIGKEFKRIVQRIKDFLRNLVPRTES, the cleaved bond result with staphopain B (SspB) (S. aureus) is “E11-K12; also recorded: E16-F17; also recorded: D26-F27; also recorded: L28-R29”. Besides, in the data set on staphopain B (SspB) (Staphylococcus aureus), the fragment found entry is “LLG16, minor”.

Turning to “RKSK EKIGKEFKRI VQRIKDFLRN LVPRTES [RK-31]”, the Biological activity entry in data set [1] (ref [23], [25]) is “AM, IM^3”. As to `CC[C@H](C)[C@H](NC(=O)[C@H](CCCCN)NC(=O)[C@H](CCC(=O)O)NC(=O)[C@H](CCCCN)NC(=O)[C@H](CO)NC(=O)[C@H](CCCCN)NC(=O)[C@H](CCCNC(=N)N)NC(=O)[C@H](Cc1ccccc1)NC(=O)[C@H](Cc1ccccc1)NC(=O)[C@H](CC(=O)O)NC(=O)CNC(=O)[C@H](CC(C)C)NC(=O)[C@@H](N)CC(C)C)C(=O)NCC(=O)N[C@@H](CCCCN)C(=O)N[C@@H](CCC(=O)O)C(=O)N[C@@H](Cc1ccccc1)C(=O)N[C@@H](CCCCN)C(=O)N[C@@H](CCCNC(=N)N)C(=O)N[C@H](C(=O)N[C@H](C(=O)N[C@@H](CCC(N)=O)C(=O)N[C@@H](CCCNC(=N)N)C(=O)N[C@H](C(=O)N[C@@H](CCCCN)C(=O)N[C@@H](CC(=O)O)C(=O)N[C@@H](Cc1ccccc1)C(=O)N[C@@H](CC(C)C)C(=O)N[C@@H](CCCNC(=N)N)C(=O)N[C@@H](CC(N)=O)C(=O)N[C@@H](CC(C)C)C(=O)N[C@H](C(=O)N1CCC[C@H]1C(=O)N[C@@H](CCCNC(=N)N)C(=O)N[C@H](C(=O)N[C@@H](CCC(=O)O)C(=O)N[C@@H](CO)C(=O)O)[C@@H](C)O)C(C)C)[C@@H](C)CC)C(C)C)[C@@H](C)CC` [LL-37], in data set [2], the “degradation by ScpA” value is recorded as “did not reveal any obvious major cleavage”. For the same compound, the “degradation by SspB” value in data set [3] is listed as “degraded into fragments of lower molecular weight”. In data set [4], the “MIC values obtained for planktonic cells” value was in the range of 10 to 20 µM.
